The series is described as follows: refractive index (Na D-line) (dimensionless). The conditions noted are these: 303.15 K; 101.33 kPa; Liquid; Standard Abbe refractometry.

Numbers after ± are expanded uncertainties.

`CC(=O)OC(C)C` [1-methylethyl ethanoate]: the refractive index – broadly, the speed of light in vacuum divided by its phase velocity in the sample – turned out to be 1.3701 ± 0.004. Then `OCC(F)(F)C(F)F` [2,2,3,3-tetrafluoro-1-propanol], with 1.3196 ± 0.004; and `CCOC(C)=O` [ethyl acetate], with 1.3675 ± 0.004.

Source of the values: the NIST ThermoML archive (doi:10.1016/j.jct.2016.12.006).
